Experimental findings from paper PMC9516332 (Frontiers in Oncology, 2022) are described below.

What is called IC50 is the concentration that gives 50% inhibition. A low value points to higher potency.

In assay [1] the target is MEK1 (Homo sapiens, UniProt Q02750). Kind of assay: Enzyme-linked immunosorbent assay (ELISA) of enzymatic activity, IC50. The format is biochemical.
For assay [2], the target named is MEK2 (Homo sapiens, UniProt P36507). The description is as above. In kind it is biochemical.
The target in assay [3] is T1, ALK (Homo sapiens, UniProt Q9UM73).
T1 construct: purchased Carna Biosciences (only by web pointer)
Kind of assay: Biochemical kinase assay (MSA), IC50.

For assay [4], the system named is MET-altered cell lines. To be noted: MANOVA.
Assay [5] concerns EGFR double mutants p.ex19del/T790M and p.L858R/T790M. Description: Biochemical kinase assays with EGFR mutants.
Assay [6] relates to NCI-H1975 (EGFR p.L858R + p.T790M). Description: Cell viability assay. In kind it is cell-based.
Assay [7] concerns ALK-altered cell lines. Description: Cell viability assay, ALK-altered versus ALK wild-type cell lines. In kind it is cell-based. To be noted: MANOVA.
In assay [8] the target is T2, FLT3 (Homo sapiens, UniProt P36888).
T2 construct: purchased Carna Biosciences (only by web pointer)
Description: Biochemical kinase assay (MSA), IC50. To be noted: biochemical assays.

Assay [9] has as its system FLT3 ITD-mutant cell lines MOLM-13 and MV4-11. Kind of assay: Cell viability assay. In kind it is cell-based.
Assay [10] deals with T3, ROS (Homo sapiens, UniProt P08922).
T3 construct: purchased Carna Biosciences (only by web pointer)
Description: Biochemical kinase assay (MSA), IC50. To be noted: biochemical assays.

Assay [11] has as its target T4, FGFR1 (Homo sapiens, UniProt P11362).
T4 construct: purchased Carna Biosciences (only by web pointer)
Description: Biochemical kinase assay (MSA), IC50.

Assay [12] addresses T5, FGFR2 (Homo sapiens, UniProt P21802).
T5 construct: purchased Carna Biosciences (only by web pointer)
Description: Biochemical kinase assay (MSA), IC50.

Assay [13] has as its target T6, RET (Homo sapiens, UniProt P07949).
T6 construct: purchased Carna Biosciences (only by web pointer)
Kind of assay: Biochemical kinase assay (MSA), IC50. Particulars: biochemical assays.

Assay [14] deals with T7, EGFR (Homo sapiens, UniProt P00533).
T7 construct: purchased Carna Biosciences (only by web pointer)
Description: Biochemical kinase assay (MSA), IC50.

Assay [15] has as its target T8, HER2 (Homo sapiens, UniProt P04626).
T8 construct: purchased Carna Biosciences (only by web pointer)
Description: Biochemical kinase assay (MSA), IC50.

In assay [16] the target is T9, HER4 (Homo sapiens, UniProt Q15303).
T9 construct: purchased Carna Biosciences (only by web pointer)
Description: Biochemical kinase assay (MSA), IC50.

Assay [17] concerns the target T10, BRK (Homo sapiens, UniProt Q13882).
T10 construct: purchased Carna Biosciences (only by web pointer)
Kind of assay: Biochemical kinase assay (MSA), IC50.

Molecules are shown by their SMILES. Some results are limits rather than exact numbers.

Sequence of MEK1 (Q02750 whole entry): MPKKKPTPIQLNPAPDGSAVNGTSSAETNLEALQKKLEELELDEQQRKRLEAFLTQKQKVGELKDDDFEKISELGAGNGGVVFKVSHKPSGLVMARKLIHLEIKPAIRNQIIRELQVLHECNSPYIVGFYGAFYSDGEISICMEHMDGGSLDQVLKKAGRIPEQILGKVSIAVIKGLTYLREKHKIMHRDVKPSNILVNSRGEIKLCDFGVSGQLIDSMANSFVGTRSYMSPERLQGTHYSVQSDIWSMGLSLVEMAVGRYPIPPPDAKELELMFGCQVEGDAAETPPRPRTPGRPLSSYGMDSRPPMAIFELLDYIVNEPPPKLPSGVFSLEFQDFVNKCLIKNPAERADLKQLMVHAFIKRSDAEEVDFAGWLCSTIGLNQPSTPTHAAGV
T5 sequence (P21802 22-821): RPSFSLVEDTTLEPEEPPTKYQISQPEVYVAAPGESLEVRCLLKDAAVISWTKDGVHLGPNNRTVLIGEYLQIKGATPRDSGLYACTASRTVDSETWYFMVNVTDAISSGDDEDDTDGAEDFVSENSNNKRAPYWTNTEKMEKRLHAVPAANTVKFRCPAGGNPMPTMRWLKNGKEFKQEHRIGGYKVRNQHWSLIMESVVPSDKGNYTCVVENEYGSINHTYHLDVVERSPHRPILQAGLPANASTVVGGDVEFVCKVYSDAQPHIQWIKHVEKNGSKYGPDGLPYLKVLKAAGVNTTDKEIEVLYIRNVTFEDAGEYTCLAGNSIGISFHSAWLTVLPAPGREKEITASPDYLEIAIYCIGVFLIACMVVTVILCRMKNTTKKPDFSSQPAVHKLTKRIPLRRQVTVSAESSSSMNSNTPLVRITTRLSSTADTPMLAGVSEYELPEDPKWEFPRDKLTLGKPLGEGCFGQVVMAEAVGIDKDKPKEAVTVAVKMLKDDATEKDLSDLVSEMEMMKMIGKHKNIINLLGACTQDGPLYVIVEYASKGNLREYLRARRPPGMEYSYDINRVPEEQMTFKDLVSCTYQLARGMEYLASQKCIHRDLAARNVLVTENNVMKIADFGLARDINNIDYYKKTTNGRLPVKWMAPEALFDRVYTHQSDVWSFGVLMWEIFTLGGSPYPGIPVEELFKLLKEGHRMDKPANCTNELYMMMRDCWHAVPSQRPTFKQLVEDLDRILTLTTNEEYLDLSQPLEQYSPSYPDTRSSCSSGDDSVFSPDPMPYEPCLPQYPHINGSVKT
T1 sequence (Q9UM73 19-1620): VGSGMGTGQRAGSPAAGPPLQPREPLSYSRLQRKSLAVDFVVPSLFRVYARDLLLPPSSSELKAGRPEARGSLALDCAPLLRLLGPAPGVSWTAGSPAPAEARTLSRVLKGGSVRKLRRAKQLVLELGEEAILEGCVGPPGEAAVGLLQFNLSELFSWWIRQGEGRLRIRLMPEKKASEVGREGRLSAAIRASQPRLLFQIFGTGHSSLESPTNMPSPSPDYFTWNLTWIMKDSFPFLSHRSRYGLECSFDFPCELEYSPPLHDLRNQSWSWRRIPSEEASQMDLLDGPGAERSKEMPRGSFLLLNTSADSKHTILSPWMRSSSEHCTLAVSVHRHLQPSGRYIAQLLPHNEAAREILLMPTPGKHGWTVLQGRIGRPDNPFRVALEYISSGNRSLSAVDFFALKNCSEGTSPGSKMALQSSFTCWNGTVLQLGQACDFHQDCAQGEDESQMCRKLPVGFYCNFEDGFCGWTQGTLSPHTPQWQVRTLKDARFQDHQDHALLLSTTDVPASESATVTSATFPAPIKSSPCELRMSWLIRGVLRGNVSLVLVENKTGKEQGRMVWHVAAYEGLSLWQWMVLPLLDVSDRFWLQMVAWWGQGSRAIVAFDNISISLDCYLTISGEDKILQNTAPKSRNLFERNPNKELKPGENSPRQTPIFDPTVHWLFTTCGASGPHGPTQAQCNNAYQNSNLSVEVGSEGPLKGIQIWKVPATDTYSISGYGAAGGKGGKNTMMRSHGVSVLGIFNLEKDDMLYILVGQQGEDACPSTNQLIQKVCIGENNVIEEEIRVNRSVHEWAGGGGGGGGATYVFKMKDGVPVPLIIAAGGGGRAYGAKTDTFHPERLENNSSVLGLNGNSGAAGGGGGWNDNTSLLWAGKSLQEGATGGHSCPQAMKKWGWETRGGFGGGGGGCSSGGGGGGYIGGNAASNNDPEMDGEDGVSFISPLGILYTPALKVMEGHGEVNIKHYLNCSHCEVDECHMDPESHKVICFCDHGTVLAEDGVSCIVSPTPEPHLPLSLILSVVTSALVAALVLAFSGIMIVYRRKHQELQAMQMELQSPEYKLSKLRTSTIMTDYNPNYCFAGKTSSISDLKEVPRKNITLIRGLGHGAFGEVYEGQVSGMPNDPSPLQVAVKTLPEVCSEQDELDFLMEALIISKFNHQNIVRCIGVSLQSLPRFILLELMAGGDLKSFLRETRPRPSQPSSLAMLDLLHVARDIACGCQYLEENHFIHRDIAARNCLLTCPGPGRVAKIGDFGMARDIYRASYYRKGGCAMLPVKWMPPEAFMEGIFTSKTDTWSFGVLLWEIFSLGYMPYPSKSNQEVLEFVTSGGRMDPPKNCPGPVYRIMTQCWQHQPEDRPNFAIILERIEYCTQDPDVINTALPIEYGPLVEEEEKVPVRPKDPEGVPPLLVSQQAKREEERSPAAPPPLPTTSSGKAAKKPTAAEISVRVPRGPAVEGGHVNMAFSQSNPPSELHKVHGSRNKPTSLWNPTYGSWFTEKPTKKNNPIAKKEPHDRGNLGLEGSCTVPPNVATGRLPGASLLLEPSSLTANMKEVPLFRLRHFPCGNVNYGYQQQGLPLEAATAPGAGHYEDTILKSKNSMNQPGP
Sequence of MEK2 (P36507 whole entry): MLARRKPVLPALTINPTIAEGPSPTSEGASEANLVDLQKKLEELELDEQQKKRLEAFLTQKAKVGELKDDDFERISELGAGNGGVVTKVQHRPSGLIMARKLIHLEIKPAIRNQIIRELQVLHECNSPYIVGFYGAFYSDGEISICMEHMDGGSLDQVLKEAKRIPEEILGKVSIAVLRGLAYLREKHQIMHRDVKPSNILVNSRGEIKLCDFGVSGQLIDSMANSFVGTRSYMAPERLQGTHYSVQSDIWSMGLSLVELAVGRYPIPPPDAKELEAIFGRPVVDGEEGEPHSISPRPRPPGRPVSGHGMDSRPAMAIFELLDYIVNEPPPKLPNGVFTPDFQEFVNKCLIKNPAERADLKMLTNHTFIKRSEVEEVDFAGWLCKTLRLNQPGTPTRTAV
T4 sequence (P11362 22-822): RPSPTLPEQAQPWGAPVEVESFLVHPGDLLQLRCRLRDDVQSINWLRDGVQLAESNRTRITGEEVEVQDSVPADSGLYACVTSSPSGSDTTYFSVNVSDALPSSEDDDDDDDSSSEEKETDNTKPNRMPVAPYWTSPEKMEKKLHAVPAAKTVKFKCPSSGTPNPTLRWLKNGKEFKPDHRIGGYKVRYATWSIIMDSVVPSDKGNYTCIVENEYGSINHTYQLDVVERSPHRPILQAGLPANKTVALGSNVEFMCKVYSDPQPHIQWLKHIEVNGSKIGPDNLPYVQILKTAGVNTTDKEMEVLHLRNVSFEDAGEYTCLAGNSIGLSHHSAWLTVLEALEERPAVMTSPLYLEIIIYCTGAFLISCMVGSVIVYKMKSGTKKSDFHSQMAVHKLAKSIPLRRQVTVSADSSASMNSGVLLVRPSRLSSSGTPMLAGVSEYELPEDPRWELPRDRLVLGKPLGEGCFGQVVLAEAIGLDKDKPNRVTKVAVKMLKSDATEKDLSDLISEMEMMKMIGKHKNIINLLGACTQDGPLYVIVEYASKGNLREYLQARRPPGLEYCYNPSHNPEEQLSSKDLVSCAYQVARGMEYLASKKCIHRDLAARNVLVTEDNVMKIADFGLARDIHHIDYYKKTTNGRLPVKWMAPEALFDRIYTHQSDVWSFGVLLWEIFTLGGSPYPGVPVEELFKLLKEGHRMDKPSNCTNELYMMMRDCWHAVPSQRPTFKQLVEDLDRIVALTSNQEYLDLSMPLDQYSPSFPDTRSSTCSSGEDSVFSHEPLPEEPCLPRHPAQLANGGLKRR
T6 sequence (P07949 29-1114): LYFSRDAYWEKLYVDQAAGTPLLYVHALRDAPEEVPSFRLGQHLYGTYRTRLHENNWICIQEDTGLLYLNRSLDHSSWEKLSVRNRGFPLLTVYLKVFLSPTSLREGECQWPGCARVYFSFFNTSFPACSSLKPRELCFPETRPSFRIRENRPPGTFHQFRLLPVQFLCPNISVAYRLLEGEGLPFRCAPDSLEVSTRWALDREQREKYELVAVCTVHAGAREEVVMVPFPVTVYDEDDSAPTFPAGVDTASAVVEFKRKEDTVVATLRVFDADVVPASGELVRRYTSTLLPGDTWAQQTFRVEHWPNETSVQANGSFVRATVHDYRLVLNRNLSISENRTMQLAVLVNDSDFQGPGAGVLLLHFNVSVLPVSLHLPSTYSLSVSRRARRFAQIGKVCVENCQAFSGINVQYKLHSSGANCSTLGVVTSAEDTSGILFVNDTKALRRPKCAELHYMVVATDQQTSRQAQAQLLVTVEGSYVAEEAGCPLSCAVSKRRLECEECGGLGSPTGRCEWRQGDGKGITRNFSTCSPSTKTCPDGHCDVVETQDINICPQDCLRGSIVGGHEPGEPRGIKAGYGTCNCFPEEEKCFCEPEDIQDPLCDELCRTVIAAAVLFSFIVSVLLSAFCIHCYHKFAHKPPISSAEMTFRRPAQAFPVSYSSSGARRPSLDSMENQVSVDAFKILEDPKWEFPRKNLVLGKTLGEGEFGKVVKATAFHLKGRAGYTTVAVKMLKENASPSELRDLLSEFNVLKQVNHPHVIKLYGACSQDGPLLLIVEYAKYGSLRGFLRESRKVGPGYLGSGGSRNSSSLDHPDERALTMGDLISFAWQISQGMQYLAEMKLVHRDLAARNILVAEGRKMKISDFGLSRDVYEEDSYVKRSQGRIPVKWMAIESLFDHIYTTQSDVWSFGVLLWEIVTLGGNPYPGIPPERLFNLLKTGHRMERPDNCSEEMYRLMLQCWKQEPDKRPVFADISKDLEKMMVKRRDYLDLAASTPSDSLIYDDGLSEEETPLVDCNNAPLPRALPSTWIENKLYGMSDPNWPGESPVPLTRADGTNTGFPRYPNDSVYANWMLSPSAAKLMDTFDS

For the compound `Cn1cnc2c(F)c(Nc3ccc(Br)cc3F)c(C(=O)NOCCO)cc21` [binimetinib], the IC50 in assay [1] is 503 nM; in assay [2], greater than 1000 nM.
`CNC(=O)c1ccc(-c2cnc3ncc(Cc4ccc5ncccc5c4)n3n2)cc1F` [capmatinib]: the IC50 in assay [3] is greater than 1000 nM. For the same compound, the “higher potency in MET-altered compared to MET wild-type cell lines” value in assay [4] is recorded as “over 10,000 fold”.
For `O=C(c1ccc(F)c(F)c1Nc1ccc(I)cc1F)N1CC(O)([C@@H]2CCCCN2)C1` [cobimetinib], the 50% inhibitory concentration (IC50) in assay [1] came to 61 nM; in assay [2], 190 nM.
As to `COc1cc2ncnc(Nc3ccc(F)c(Cl)c3)c2cc1NC(=O)/C=C/CN1CCCCC1` [dacomitinib], the “lower potency on double mutants (p.T790M plus sensitizing mutation) than on wild-type EGFR and sensitizing mutants” value in assay [5] is on record as 30 fold. The “lower potency in NCI-H1975 compared to osimertinib” value in assay [6] is on record as 28 fold.
Take `CN1CCN(c2ccc(C(=O)Nc3n[nH]c4ccc(Cc5cc(F)cc(F)c5)cc34)c(NC3CCOCC3)c2)CC1` [entrectinib]: the “difference in IC50 between ALK-altered and ALK wild-type cell lines” value in assay [7] is 12 fold.
As to `CCc1nc(C(N)=O)c(Nc2ccc(N3CCC(N4CCN(C)CC4)CC3)c(OC)c2)nc1NC1CCOCC1` [gilteritinib], in assay [8], the “potency on FLT3 compared to midostaurin” value is given as “around eight-fold more potent”. In addition, the “difference in IC50 between ALK-altered and ALK wild-type cell lines” value in assay [7] is reported as 55 fold. Besides, the “potency in the FLT3 ITD-mutant cell lines compared to midostaurin” value in [9] (on average) was “eight times more potent”.
In turn, `O=C(Nc1cnn2ccc(N3CCC[C@@H]3c3cc(F)ccc3F)nc12)N1CC[C@H](O)C1` [larotrectinib] returned a concentration for half-maximal inhibition (IC50) in [3] greater than 1000 nM. Also, in assay [10], the “higher IC50 on ROS1 compared to TRKA-C” value is listed as “around 100 fold”. Further, the “higher IC50 in MOLM-13 and MV4-11 compared to AP-1060” value in assay [9] (cell viability) is recorded as “more than 1000 fold”.
As to `CO[C@]1(C(=O)N[C@@H](C)c2ccc(-n3cc(F)cn3)nc2)CC[C@H](c2nc(C)cc(Nc3cc(C)[nH]n3)n2)CC1` [pralsetinib], the figures for the IC50 in assay [11] and in assay [12] were 11 nM and 27 nM, respectively.
Turning to `COc1ccc(CN2C3CC2CN(c2ccc(-c4cc(OCC(C)(C)O)cn5ncc(C#N)c45)cn2)C3)cn1` [selpercatinib], the results for the IC50 in assay [11] and in assay [12] were 46 nM and 16 nM, respectively. Besides, the “potency on RET compared to pralsetinib” value in assay [13] is given as “almost two-fold more potent”.
As for `Cc1cc(Nc2ncnc3ccc(NC4=NC(C)(C)CO4)cc23)ccc1Oc1ccn2ncnc2c1` [tucatinib], the IC50 in [14] stood at 6.7 nM; in [15], 3.3 nM; in assay [16], 95 nM.
For `C=CC(=O)N1CCC([C@@H]2CCNc3c(C(N)=O)c(-c4ccc(Oc5ccccc5)cc4)nn32)CC1` [zanubrutinib], the IC50 in assay [17] worked out at 18 nM.
